Activity calls are given as the source filed them.
How the values were obtained:
[1] = biological target: ALK tyrosine kinase receptor (Homo sapiens, UniProt Q9UM73); assay type: functional;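 note: ALK tested as one member of a kinase panel screen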
[2] = biological target: Death-associated protein kinase 3 (Homo sapiens, UniProt O43293); assay type: functional;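 note: measured as one member of a kinome-wide profiling panel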
[3] = biological target: Activin receptor type-1 (Homo sapiens, UniProt Q04771); assay: Navigating the Kinome. Panel member name: ACVR1; assay type: functional
[4] = biological target: Mitogen-activated protein kinase 8 (Homo sapiens, UniProt P45983); assay type: functional;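 note: value comes from one member of a kinome-wide kinase profiling panel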
[5] = biological target: Serine/threonine-protein kinase pim-1 (Homo sapiens, UniProt P11309); assay type: functional
[6] = biological target: Serine/threonine-protein kinase PAK 4 (Homo sapiens, UniProt O96013); assay type: functional;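 note: value obtained within a kinome profiling panel in which PAK4 was one of the panel members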
[7] = biological target: Tyrosine-protein kinase JAK3 (Homo sapiens, UniProt P52333); assay type: functional
[8] = biological target: Serine/threonine-protein kinase TAO1 (Homo sapiens, UniProt Q7L7X3); assay type: functional
[9] = biological target: Glycogen synthase kinase-3 alpha (Homo sapiens, UniProt P49840); assay type: functional;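 note: GSK3A result taken from a broad kinome-wide kinase panel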
[10] = biological target: G protein-coupled receptor kinase 5 (Homo sapiens, UniProt P34947); assay: Navigating the Kinome. Panel member name: GPRK5; assay type: functional
[11] = biological target: Tyrosine-protein kinase Fyn (Homo sapiens, UniProt P06241); assay type: functional
[12] = biological target: Cyclin-dependent kinase 7 (Homo sapiens, UniProt P50613); assay type: functional;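 note: value comes from a kinome-wide kinase profiling panel in which CDK7 is one member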
[13] = biological target: Mitogen-activated protein kinase kinase kinase kinase 4 (Homo sapiens, UniProt O95819); assay type: functional
[14] = biological target: Macrophage-stimulating protein receptor (Homo sapiens, UniProt Q04912); assay: Navigating the Kinome. Panel member name: MST1R; assay type: functional
[15] = biological target: Calcium/calmodulin-dependent protein kinase type II subunit alpha (Homo sapiens, UniProt Q9UQM7); assay: Navigating the Kinome. Panel member name: CAMK2A; assay type: functional
[16] = biological target: Glycogen synthase kinase-3 beta (Homo sapiens, UniProt P49841); assay type: functional;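 note: value comes from a broad kinome profiling panel, with GSK3B as the panel member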
[17] = biological target: Dual specificity protein kinase CLK4 (Homo sapiens, UniProt Q9HAZ1); assay type: functional
[18] = biological target: Dual specificity tyrosine-phosphorylation-regulated kinase 1A (Homo sapiens, UniProt Q13627); assay type: functional;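 note: measured against DYRK1A as one member of a broad kinome profiling panel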
[19] = biological target: Cell division cycle 7-related protein kinase (Homo sapiens, UniProt O00311); assay type: functional;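 note: value obtained from a kinome-wide kinase panel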
[20] = biological target: Homeodomain-interacting protein kinase 2 (Homo sapiens, UniProt Q9H2X6); assay type: functional;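 note: measured within a kinome-wide kinase profiling panel, HIPK2 being one panel member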
[21] = biological target: T1, Interleukin-1 receptor-associated kinase 4 (Homo sapiens, UniProt Q9NWZ3); assay type: functional
T1 sequence (Q9NWZ3 whole entry): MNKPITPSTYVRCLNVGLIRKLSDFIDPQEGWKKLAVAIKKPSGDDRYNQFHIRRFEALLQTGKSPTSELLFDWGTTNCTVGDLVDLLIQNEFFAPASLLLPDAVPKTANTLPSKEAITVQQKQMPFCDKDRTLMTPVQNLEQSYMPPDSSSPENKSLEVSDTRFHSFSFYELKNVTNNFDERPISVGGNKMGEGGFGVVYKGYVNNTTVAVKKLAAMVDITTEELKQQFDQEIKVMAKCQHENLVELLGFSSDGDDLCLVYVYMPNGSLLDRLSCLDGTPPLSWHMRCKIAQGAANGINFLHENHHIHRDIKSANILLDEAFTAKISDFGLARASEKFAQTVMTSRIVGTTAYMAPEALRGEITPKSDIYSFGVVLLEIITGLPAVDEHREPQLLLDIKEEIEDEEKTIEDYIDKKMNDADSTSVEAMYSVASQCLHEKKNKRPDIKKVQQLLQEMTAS

[22] = biological target: Cyclin-dependent kinase 9 (Homo sapiens, UniProt P50750); assay type: functional;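 note: value from the CDK9 entry of a kinome-spanning kinase panel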
[23] = biological target: cAMP-dependent protein kinase catalytic subunit alpha (Homo sapiens, UniProt P17612); assay type: functional
[24] = biological target: Aurora kinase A (Homo sapiens, UniProt O14965); assay type: functional;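 note: value from the Navigating the Kinome kinase panel profiling, panel entry STK6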
[25] = biological target: MAP kinase-interacting serine/threonine-protein kinase 2 (Homo sapiens, UniProt Q9HBH9); assay type: functional
[26] = biological target: Aurora kinase B (Homo sapiens, UniProt Q96GD4); assay type: functional
[27] = biological target: Tyrosine-protein kinase receptor TYRO3 (Homo sapiens, UniProt Q06418); assay type: functional;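 note: TYRO3 value obtained as one member of a kinome-wide profiling panel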
[28] = biological target: Cyclin-dependent kinase 5 (Homo sapiens, UniProt Q00535); assay type: functional;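 note: CDK5 measured as one member of a kinase profiling panel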
[29] = biological target: Platelet-derived growth factor receptor alpha (Homo sapiens, UniProt P16234); assay: Navigating the Kinome. Panel member name: PDGFRA; assay type: functional
[30] = biological target: High affinity nerve growth factor receptor (Homo sapiens, UniProt P04629); assay type: functional;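 note: NTRK1 tested as one member of a kinome-wide profiling panel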
[31] = biological target: Inhibitor of nuclear factor kappa-B kinase subunit epsilon (Homo sapiens, UniProt Q14164); assay: Navigating the Kinome. Panel member name: IKBKE; assay type: functional
[32] = biological target: Cyclin-dependent kinase 19 (Homo sapiens, UniProt Q9BWU1); assay: Navigating the Kinome. Panel member name: CDC2L6; assay type: functional
[33] = biological target: T2, RNA-binding protein pos-1 (Caenorhabditis elegans, UniProt G5EF15); assay: disruptors of C. elegans POS-1 RNA interaction – biochemical, fluorescence polarization, dose response (AID 1964);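 note: purified POS-1 fused to maltose binding protein made in E. coli; potency of compounds blocking POS-1 binding to fluorescent RNA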
T2 sequence (G5EF15 whole entry): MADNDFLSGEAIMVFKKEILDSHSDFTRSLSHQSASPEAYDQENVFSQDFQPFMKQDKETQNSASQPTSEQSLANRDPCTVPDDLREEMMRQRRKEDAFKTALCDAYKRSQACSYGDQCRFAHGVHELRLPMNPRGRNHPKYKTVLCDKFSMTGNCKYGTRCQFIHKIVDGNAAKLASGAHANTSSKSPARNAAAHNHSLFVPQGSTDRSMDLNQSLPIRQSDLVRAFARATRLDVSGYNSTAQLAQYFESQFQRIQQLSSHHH

[34] = biological target: T3, Zinc finger protein mex-5 (Caenorhabditis elegans, UniProt Q9XUB2); assay: potency of MEX-5 RNA-binding blockers – biochemical, C. elegans, fluorescence polarization, dose response (AID 1960)
T3 sequence (Q9XUB2 whole entry): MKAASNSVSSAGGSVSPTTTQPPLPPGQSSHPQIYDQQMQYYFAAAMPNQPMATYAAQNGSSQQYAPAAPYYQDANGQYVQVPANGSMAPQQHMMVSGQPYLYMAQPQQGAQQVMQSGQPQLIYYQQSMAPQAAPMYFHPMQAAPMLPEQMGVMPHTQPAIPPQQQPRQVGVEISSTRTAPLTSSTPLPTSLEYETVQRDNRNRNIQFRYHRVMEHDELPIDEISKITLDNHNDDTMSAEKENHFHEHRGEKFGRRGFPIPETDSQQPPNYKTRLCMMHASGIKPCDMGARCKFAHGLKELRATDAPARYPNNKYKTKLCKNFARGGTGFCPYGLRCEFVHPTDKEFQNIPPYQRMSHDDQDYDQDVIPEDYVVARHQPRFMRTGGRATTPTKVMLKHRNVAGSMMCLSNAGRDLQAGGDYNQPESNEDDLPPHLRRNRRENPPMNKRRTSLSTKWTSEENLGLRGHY

[35] = biological target: T4, Corticotropin-releasing factor receptor 2/Corticotropin-releasing factor-binding protein (Homo sapiens, UniProt P24387+Q13324); assay: activators of CRF receptor 2 with binding protein – uHTS hits, confirmation (AID 602473); assay type: functional; details: read-out: EC50_Mean
T4 sequence (Q13324 whole entry): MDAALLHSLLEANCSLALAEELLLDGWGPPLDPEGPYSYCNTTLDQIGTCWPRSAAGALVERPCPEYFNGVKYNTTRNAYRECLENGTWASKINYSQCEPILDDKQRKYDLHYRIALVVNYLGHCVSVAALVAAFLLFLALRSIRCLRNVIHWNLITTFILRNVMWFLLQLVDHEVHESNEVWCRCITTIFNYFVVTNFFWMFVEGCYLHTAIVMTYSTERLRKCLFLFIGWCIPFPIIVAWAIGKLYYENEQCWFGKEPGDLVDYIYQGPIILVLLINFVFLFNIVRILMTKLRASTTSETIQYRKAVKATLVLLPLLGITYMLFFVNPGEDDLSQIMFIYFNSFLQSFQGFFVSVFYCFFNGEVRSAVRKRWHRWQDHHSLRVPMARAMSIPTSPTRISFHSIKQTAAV
T4 sequence (P24387 whole entry): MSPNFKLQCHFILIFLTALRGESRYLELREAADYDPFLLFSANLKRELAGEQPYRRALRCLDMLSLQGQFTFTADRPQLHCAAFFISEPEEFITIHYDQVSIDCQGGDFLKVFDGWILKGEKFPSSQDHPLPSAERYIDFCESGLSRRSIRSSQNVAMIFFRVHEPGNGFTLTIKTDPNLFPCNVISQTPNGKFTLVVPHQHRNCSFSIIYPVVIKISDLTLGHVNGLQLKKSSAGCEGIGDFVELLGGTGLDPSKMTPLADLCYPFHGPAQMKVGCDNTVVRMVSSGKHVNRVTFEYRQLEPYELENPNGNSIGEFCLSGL

[36] = biological target: Botulinum neurotoxin type A (Clostridium botulinum (strain Hall / ATCC 3502 / NCTC 13319 / Type A), UniProt P0DPI1); assay: High-throughput multiplex microsphere dose response for inhibitors of toxin protease, specifically Botulinum neurotoxin light chain A protease, compounds from Cherry Pick 01.; assay type: functional; details: read-out: EC50_MICROM
[37] = biological target: Botulinum neurotoxin type F (Clostridium botulinum, UniProt P30996); assay: High-throughput multiplex microsphere dose response for inhibitors of toxin protease, specifically Botulinum neurotoxin light chain F protease, compounds from Cherry Pick 01.; assay type: functional; details: read-out: EC50_MICROM
[38] = biological target: Lethal factor (Bacillus anthracis, UniProt P15917); assay: High-throughput multiplex microsphere dose response for inhibitors of toxin protease, specifically Lethal Factor protease, compounds from Cherry Pick 01.; assay type: functional; details: read-out: EC50_MICROM

Sequence of Serine/threonine-protein kinase pim-1 (P11309 whole entry): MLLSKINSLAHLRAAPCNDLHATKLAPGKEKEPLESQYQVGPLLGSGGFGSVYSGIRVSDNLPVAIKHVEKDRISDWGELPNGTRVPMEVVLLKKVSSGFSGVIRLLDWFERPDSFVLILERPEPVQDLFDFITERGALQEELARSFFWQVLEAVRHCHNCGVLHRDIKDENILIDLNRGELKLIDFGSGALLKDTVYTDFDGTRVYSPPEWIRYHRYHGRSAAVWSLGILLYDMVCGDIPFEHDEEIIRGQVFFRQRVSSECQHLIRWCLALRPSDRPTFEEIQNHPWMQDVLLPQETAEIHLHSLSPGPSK
Sequence of Glycogen synthase kinase-3 beta (P49841 whole entry): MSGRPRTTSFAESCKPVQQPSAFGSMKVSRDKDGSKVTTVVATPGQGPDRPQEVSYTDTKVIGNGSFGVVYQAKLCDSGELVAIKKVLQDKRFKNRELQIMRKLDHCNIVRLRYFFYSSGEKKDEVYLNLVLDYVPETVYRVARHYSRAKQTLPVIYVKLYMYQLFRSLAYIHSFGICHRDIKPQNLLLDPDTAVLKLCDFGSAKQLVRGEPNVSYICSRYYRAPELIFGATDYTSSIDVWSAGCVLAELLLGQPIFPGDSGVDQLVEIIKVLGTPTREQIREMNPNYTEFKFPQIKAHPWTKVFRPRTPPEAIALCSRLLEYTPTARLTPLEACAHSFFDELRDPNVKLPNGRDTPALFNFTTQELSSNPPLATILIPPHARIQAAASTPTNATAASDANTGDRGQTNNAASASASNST
Sequence of Dual specificity protein kinase CLK4 (Q9HAZ1 whole entry): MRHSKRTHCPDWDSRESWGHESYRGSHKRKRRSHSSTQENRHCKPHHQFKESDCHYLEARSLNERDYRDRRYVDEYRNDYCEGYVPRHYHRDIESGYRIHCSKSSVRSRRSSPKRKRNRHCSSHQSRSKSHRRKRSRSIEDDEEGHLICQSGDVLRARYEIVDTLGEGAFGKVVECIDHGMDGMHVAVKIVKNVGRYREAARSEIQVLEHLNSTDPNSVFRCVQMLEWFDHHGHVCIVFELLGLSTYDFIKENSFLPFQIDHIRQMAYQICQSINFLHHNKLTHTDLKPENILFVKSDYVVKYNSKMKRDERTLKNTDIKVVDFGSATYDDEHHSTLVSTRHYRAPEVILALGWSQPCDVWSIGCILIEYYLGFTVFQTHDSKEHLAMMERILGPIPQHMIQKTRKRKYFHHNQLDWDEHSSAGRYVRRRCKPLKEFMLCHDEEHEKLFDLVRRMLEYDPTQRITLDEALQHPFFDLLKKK
Sequence of Homeodomain-interacting protein kinase 2 (Q9H2X6 whole entry): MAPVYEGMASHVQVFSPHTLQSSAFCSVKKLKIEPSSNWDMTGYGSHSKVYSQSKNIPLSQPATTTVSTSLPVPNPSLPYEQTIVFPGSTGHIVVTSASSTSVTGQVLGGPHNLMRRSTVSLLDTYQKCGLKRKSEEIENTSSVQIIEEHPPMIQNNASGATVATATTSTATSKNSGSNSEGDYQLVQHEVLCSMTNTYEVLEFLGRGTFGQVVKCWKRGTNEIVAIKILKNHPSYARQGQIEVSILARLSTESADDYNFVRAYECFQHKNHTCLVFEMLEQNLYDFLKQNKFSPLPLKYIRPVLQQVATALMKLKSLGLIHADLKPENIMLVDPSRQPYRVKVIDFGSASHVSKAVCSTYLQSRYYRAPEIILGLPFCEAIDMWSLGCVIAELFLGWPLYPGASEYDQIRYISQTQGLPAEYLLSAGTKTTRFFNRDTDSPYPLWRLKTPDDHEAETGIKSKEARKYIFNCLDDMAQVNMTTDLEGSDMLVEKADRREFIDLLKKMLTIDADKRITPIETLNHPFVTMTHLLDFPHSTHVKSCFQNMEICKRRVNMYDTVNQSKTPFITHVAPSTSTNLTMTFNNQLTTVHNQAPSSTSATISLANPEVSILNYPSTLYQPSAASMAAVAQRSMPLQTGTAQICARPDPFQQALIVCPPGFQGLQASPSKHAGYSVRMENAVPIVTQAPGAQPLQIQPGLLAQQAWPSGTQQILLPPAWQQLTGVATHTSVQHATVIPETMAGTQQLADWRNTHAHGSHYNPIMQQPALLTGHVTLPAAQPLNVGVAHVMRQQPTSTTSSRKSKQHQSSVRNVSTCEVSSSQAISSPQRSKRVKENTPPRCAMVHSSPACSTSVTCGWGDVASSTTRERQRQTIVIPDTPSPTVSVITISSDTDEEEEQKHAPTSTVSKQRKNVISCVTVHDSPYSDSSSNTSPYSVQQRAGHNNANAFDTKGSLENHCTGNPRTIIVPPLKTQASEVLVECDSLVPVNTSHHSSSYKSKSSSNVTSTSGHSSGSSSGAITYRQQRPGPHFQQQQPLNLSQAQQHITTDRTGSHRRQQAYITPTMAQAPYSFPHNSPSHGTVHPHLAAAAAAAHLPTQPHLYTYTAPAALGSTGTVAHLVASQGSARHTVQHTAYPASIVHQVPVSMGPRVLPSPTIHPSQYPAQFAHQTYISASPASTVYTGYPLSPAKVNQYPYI
Sequence of Glycogen synthase kinase-3 alpha (P49840 whole entry): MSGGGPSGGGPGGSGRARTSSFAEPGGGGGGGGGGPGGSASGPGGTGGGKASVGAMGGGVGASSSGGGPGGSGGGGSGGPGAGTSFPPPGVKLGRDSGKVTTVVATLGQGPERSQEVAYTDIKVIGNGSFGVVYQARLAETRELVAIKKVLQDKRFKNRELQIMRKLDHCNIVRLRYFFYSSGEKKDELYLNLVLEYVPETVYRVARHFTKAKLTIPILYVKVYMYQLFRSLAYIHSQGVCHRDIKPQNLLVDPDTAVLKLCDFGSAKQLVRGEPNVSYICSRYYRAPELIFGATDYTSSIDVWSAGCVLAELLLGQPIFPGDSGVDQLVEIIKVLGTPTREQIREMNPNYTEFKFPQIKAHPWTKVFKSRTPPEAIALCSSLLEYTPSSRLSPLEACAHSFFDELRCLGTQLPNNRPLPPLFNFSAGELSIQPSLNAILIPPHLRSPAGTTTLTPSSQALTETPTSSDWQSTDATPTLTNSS
Sequence of Cyclin-dependent kinase 7 (P50613 whole entry): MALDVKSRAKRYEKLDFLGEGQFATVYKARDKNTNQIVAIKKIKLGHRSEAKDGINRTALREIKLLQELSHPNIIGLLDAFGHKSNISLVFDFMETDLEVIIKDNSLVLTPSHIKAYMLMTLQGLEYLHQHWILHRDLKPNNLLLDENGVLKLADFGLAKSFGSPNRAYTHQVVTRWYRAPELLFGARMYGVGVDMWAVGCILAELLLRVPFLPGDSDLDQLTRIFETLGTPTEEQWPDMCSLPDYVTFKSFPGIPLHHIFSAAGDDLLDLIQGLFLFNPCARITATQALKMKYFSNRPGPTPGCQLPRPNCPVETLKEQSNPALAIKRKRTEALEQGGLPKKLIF
Sequence of Mitogen-activated protein kinase kinase kinase kinase 4 (O95819 whole entry): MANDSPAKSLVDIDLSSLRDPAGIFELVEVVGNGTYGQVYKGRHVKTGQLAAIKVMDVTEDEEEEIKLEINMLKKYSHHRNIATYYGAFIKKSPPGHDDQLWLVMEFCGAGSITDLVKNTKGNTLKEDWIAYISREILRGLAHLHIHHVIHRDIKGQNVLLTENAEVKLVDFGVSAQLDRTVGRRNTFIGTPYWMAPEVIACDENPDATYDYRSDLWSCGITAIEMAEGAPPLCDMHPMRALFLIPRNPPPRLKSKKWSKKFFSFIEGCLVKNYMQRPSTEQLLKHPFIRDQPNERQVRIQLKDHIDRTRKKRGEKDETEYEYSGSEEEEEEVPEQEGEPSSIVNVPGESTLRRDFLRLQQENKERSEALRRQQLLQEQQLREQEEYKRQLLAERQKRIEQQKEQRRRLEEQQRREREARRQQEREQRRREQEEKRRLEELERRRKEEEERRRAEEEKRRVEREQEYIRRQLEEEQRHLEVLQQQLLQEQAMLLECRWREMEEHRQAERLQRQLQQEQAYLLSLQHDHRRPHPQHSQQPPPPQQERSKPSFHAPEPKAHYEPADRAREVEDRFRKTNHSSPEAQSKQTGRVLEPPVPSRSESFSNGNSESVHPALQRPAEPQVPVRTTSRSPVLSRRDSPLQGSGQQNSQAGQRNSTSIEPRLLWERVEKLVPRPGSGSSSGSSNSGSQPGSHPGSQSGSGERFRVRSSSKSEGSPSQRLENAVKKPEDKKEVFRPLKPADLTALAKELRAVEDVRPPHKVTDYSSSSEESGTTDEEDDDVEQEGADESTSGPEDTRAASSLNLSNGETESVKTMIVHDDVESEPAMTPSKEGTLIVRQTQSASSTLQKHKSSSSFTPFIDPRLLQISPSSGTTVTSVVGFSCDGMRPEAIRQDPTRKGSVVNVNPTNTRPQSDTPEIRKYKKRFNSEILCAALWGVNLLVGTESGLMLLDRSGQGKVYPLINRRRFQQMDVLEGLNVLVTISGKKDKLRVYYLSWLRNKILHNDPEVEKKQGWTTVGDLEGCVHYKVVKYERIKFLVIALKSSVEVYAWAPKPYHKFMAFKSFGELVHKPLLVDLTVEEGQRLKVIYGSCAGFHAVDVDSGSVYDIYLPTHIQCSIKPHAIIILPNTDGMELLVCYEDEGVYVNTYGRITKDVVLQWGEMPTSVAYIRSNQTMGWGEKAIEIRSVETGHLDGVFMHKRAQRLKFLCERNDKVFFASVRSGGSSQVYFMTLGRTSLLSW
Sequence of Death-associated protein kinase 3 (O43293 whole entry): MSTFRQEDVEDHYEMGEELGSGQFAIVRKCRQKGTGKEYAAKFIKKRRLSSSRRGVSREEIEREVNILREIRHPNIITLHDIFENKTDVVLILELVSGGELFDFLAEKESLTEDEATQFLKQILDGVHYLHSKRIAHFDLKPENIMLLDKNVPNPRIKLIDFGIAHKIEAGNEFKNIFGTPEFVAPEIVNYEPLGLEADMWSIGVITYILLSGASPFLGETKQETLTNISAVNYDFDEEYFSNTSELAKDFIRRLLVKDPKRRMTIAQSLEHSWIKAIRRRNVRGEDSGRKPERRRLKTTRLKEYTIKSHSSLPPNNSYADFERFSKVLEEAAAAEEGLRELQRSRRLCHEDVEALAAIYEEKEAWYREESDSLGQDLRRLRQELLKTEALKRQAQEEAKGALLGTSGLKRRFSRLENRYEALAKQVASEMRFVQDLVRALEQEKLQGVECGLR

CN(C)c1ccc(NC(=O)CC2Nc3ccccc3NC2=O)cc1 (stereo unspecified)
Ki [1]: > 6.31 µM (inactive) | Ki [2]: > 5.01 µM (inactive) | Ki [3]: > 3.98 µM (inactive) | Ki [4]: > 5.01 µM (inactive) | Ki [5]: > 6.31 µM (inactive) | Ki [6]: > 5.01 µM (inactive) | Ki [7]: > 5.01 µM (inactive) | Ki [8]: > 6.31 µM (inactive) | Ki [9]: > 3.98 µM (inactive) | Ki [10]: > 3.98 µM (inactive) | Ki [11]: > 6.31 µM (inactive) | Ki [12]: > 3.98 µM (inactive) | Ki [13]: > 5.01 µM (inactive) | Ki [14]: 0.398 µM (active) | Ki [15]: > 3.98 µM (inactive)

COc1nc(N)c(C#N)c(-c2ccc(Cl)cc2Cl)c1C#N
Ki [9]: 2.51 µM (active) | Ki [16]: 2.51 µM (active) | Ki [17]: 7.94 µM (active) | Ki [18]: 5.01 µM (active)

COCCNc1cc(-c2c[nH]c3ncccc23)cc(Cl)n1
Ki [5]: 0.794 µM (active) | Ki [19]: 0.002 µM (active) | Ki [20]: 0.0631 µM (active) | Ki [21]: 3.98 µM (active) | Ki [12]: 0.158 µM (active) | Ki [16]: 0.126 µM (active) | Ki [22]: 0.2 µM (active) | Ki [23]: 0.158 µM (active)

Cc1ccc(Nc2nccc(Nc3ccccc3C(=O)O)n2)cc1F
Ki [5]: 0.158 µM (active) | Ki [24]: 0.0158 µM (active) | Ki [20]: 0.00631 µM (active) | Ki [25]: 0.251 µM (active) | Ki [26]: 0.00501 µM (active) | Ki [21]: 3.98 µM (active) | Ki [16]: 0.00316 µM (active) | Ki [23]: > 7.94 µM (inactive) | Ki [17]: 0.0794 µM (active) | Ki [13]: 0.2 µM (active)

CC(=O)n1nc(N)c2ccc(Br)cc21
Ki [27]: 2.51 µM (active) | Ki [28]: 1.58 µM (active) | Ki [29]: 2.51 µM (active)

Nc1ncnc2c1N=C(c1ccc(NC(=O)Nc3ccc(F)c(C(F)(F)F)c3)cc1)CCN2
Ki [30]: 0.126 µM (active) | Ki [31]: 3.16 µM (active)

O=C1CC(c2ccccc2)Cc2[nH]c3cc(Cl)ccc3c(=O)c21 (stereo unspecified)
Ki [5]: 2.51 µM (active) | Ki [32]: > 100 µM (inactive) | Ki [17]: 3.98 µM (active)

O=c1c(/C=C(\O)c2ccccc2)nc2ccccc2n1-c1ccccc1
EC50 [33]: 78.2 µM (inconclusive) | EC50 [34]: 6.1 µM (inconclusive) | EC50 [35]: 11.6 µM (active) | EC50 [36]: 20 µM (inactive) | EC50 [37]: 20 µM (inactive) | EC50 [38]: 20 µM (inactive)

From ChEMBL document CHEMBL1201862, “PubChem BioAssay data set” (2004)
